# Data from patent EP4792811A1, “S1PR4 REGULATOR COMPOUND FOR MUSCLE DISEASE TREATMENT AND APPLICATION THEREOF” (Shengyuan Zetong (Shanghai) Pharmaceutical Co., Ltd, priority 2023, dated 2025).
# Residue numbers refer to the chain shown, from its start. “Also recorded” adds a separate entry of the source.
# Legend:
# [1] = target: T1, hS1P1 (Homo sapiens, UniProt P21453); test: Tango β-arrestin recruitment assay, Tango-hS1P1-CHO; type: cell-based; settings: final concentration 45 µM, 9 serial dilutions at 5-fold intervals; 20 h drug treatment; luciferase readout
# T1 construct: expressed in transfected cells; host or cells: CHO-K1
# From the text: (§1) The Tango assay detects ligand-dependent GPCR activity through the interaction between β-arrestin and GPCRs. […] The NTEV fragment and the tetracycline transactivator (tTA), an artificial transcription factor, are fused at the C-terminus of the GPCR, while the CTEV fragment is fused to human β-arrestin 2. To enhance the stability of the interaction between GPCR and β-arrestin, a short sequence from the C-terminus of the human arginine vasopressin receptor 2 (V2 tail) is inserted between the GPCR and NTEV. The V2 tail contains multiple GRK phosphorylation sites, which strengthen β-arrestin binding upon phosphorylation. The CTEV fragment carries the stabile point mutation S219P and is truncated at residue 221 to remove the autoinhibitory C-terminal tail. Meanwhile, β-arrestin 2 is truncated to lack the entire C-terminal tail (residues 383-410 deleted). This truncation confers robust stimulus-dependent receptor desensitization, thereby improving detection sensitivity compared with wild-type β-arrestin 2. The UAS reporter construct consists of upstream activating sequence (UAS) elements, a minimal CMV promoter, and a tTA-dependent luciferase reporter gene. Therefore, constructing Tango cells requires the co-transfection of the above three plasmids into host cells. Upon GPCR activation and β-arrestin recruitment, the TEV enzyme at the β-arrestin terminus cleaves tTA from the GPCR C-terminus. The released tTA initiates tTA-dependent luciferase transcription, and compound activity is ultimately determined by measuring luminescence intensity.
# (§2) • 1) Tango cell line from was digested from the culture dish respectively. After cell counting, the cells were plated at a density of 10,000 cells per well with […] into a white opaque 96-well plate (add 60 µL D'Hanks to the surrounding wells), and incubated overnight (20 h) in a 5% CO2 incubator at 37°C. The cell density will reach approximately 90% the next day. • 2) After 20 h, 30 µL of serially diluted compound solution was added to each well. The control group was supplemented with 30 µL F12K complete medium. Each group had three replicate wells. • 3) Samples were collected after 20 h of drug treatment.
# (§3) (All compounds were tested at a final concentration of 45 µM, with 9 serial dilutions at 5-fold intervals. 1 µM BAF-312 was used as the positive control for S1PR1, and 25 µM BAF-312 was used as the positive control for S1PR4.)
# (§4) ^a β-arrestin recruitment activity based on Tango-S1PR1-CHO-K1 and Tango-S1PR4-CHO-K1 cells, expressed as mean EC50 values ± SD. ^b FLIPR assays were performed using S1PR2-CHO and S1PR5-CHO cell lines, expressed as mean EC50 values ± SD. ^c β-arrestin recruitment activity based on PathHunter CHO-K1-S1PR3 cells, expressed as mean EC50 values ± SD. Data are the mean of at least two independent determinations, reported as mean ± SD (standard deviation).
# [2] = target: T2, hS1P4-R-79C (Homo sapiens, UniProt O95977, R79C); test: Tango β-arrestin recruitment assay, Tango-hS1P4-R-79C-CHO; type: cell-based; settings: final concentration 45 µM, 9 serial dilutions at 5-fold intervals; 20 h drug treatment; luciferase readout
# T2 construct: expressed in transfected cells; host or cells: CHO
# T2 sequence (O95977 1-384 R79C): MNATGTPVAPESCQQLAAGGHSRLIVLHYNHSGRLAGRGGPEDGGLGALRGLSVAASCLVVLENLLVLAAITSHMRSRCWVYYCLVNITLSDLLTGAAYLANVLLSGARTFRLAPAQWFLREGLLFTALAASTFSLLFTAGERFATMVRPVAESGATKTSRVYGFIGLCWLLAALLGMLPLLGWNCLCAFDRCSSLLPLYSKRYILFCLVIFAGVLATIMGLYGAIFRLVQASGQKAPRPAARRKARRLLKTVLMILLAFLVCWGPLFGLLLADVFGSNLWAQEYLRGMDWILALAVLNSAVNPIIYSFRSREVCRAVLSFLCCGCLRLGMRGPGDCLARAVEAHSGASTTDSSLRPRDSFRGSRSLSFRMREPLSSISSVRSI
# From the text: as §1, §2, §3
# [3] = target: T3, S1PR4 (Homo sapiens, UniProt O95977); test: S1PR4 internalization function test in S1PR4-293T cells; type: cell-based; settings: 1 µM, 37 °C, 1.5 hours; detected immediately, or at 5 hours or 20 hours after treatment
# T3 construct: expressed in transfected cells; host or cells: 293T
# T3 sequence (O95977 1-384): T2 sequence (O95977 1-384 R79C) with C79R
# Description: Therefore, the recovery degree of S1PR4 after internalization caused by Compound 30 was evaluated, and the recovery effect following receptor internalization caused by Compound 30 was assessed in cells with high S1PR4 expression.
# [4] = test system: S1PR4-R82C/NDUFA10-R217W double-mutant mice; test: In vivo efficacy in S1PR4-R82C/NDUFA10-R217W double-mutant muscular dystrophy mice; settings: 1 mg/kg intragastric once daily
# Description: Experimental Animals: A total of 34 S1PR4-R82C/NDUFA10-R217W mice were divided into 6 groups as shown below.
# Intragastric administration was initiated on Day 0, and body weight was measured daily during the experiment to adjust the drug dosage. Grip strength was measured at the beginning and end of the experiment to observe motor changes in mice. Changes in the limb grip strength, serum creatine kinase content, and muscle fibrosis/inflammation in mice were detected as indicators for evaluating drug efficacy.
# (§5) The mouse was placed horizontally on the grip test board. The mouse's tail was held and pulled gently in the opposite direction without using excessive force. The tail was gradually pulled until the mouse released the grip force sensor. The maximum value recorded by the grip force sensor is the grip strength. The test was repeated for 3 times and the average value was taken.
# (§6) After the completion of administration, blood was collected via the orbital sinus, allowed to stand for 30 minutes, centrifuged at 3000 rpm at 4°C for 15 minutes, and serum was extracted, stored frozen at -20°C, and detected in accordance with the kit instructions.
# (§7) After the experiment, the tibialis anterior, extensor digitorum longus, and diaphragm of the mice were harvested, fixed, sectioned, and subjected to HE staining and Sirius Red staining to observe the degree of muscle fibrosis. The slice was subjected to immunofluorescence staining with F4/80 to observe the level of muscle inflammation.
# [5] = test system: Duchenne muscular dystrophy model mice; test: In vivo pharmacodynamic test in Duchenne muscular dystrophy model mice (Compound 30); settings: 1 mg/kg intragastric once daily
# Description: Experimental Animals: A total of 35 Duchenne muscular dystrophy model mice were divided into 6 groups as shown below.
# Intragastric administration was initiated from Day 0. Body weight was measured daily during the experiment to adjust the drug dosage. Grip strength tests were performed every 2 days to observe changes in the mice's grip strength until the experiment concluded on Day 21. Changes in the limb grip strength, serum creatine kinase content, and muscle fibrosis/inflammation in the mice were detected as indicators for evaluating drug efficacy.
# as §5, §6, §7
# [6] = target: T4, hS1P4 (Homo sapiens, UniProt O95977); test: Tango β-arrestin recruitment assay, Tango-hS1P4-CHO; type: cell-based; settings: final concentration 45 µM, 9 serial dilutions at 5-fold intervals; 20 h drug treatment; luciferase readout
# T4 construct: expressed in transfected cells; host or cells: CHO-K1
# T4 sequence (O95977 1-384): T2 sequence (O95977 1-384 R79C) with C79R
# From the text: as §1, §2, §3, §4
# [7] = test system: Duchenne muscular dystrophy model mice; test: In vivo efficacy in Duchenne muscular dystrophy mdx mice (Compound 67); settings: for rotarod time: Day 42; for rotarod time / grip strength: compared with the model group; for grip strength: after 42 days of treatment
# Description: Experimental animals: A total of 18 Duchenne muscular dystrophy model mice were divided into 3 groups with 6 mice in each group.
# Intragastric administration was initiated on Day 0. Body weight was measured daily during the period to adjust the drug dosage. Grip strength and rotarod tests were performed on Day 20 and Day 42. Changes in the limb grip strength, exercise duration, and muscle fibrosis/inflammation in mice were detected as indicators for evaluating drug efficacy.
# as §5
# The rotarod test was conducted on Day 0, Day 20, and Day 42 respectively. The test was performed at an accelerating speed (0-16 rpm), reaching the maximum speed after 300 seconds, with a maximum test duration of 600 seconds. The time until the animal fell off was recorded^7.
# After the experiment, the tibialis anterior, extensor digitorum longus, and diaphragm of the mice were harvested, fixed, sectioned, and subjected to HE staining and Sirius Red staining to observe the degree of muscle fibrosis.
# [8] = test system: LPS-induced sepsis model; test: LPS-induced sepsis myopathy (skeletal muscle atrophy) model; type: in vivo, mice; settings: 14 days of LPS treatment
# From the text: Animal models of sepsis can be established by injecting exogenous toxins into animals. In this study, a sepsis model was established via intraperitoneal injection of lipopolysaccharide to observe the effects of compounds on the occurrence and development of acquired weakness. This is a widely used method for modeling sepsis.
# A skeletal muscle atrophy model induced by lipopolysaccharide can simulate clinical muscle atrophy caused by sepsis.
# Mice were given a single intraperitoneal injection of LPS (1 mg/kg), followed by 14 consecutive days of intraperitoneal injection of either vehicle (1% DMSO dissolved in physiological saline) or Compound 30. Body weight was measured daily. After 14 days of LPS treatment, the mice were anesthetized, and the gastrocnemius and tibialis anterior muscles were harvested.
# [9] = 20 mg/kg intragastric once daily
# [10] = 3 mg/kg intragastric once daily
# T1 sequence (P21453 whole entry): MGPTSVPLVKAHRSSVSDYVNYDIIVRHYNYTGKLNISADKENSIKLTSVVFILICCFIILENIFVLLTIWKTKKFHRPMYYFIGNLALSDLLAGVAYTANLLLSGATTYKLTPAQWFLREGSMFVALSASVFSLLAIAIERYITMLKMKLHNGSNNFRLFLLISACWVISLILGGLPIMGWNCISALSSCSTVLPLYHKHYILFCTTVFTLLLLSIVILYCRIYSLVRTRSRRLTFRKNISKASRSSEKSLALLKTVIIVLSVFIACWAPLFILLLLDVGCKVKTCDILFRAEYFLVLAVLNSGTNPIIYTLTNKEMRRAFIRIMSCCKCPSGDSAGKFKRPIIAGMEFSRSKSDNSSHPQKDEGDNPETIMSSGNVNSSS
compound,measurement,setting,value
"CCc1cc(/C(C)=N/OCc2ccc(C3CCCCC3)c(C(F)(F)F)c2)ccc1CN1CC(C(=O)O)C1 [BAF312, reference compound]",EC50,[1],1.04 nM
same,EC50,[2],157 nM
same,S1PR4 internalization (expression of S1PR4 receptor on the cell surface),[3],cannot induce S1PR4 internalization
same,collagen deposition (collagen area ratio),[4]; after administration,significantly reduced collagen deposition
same,serum creatine kinase level,[4]; after treatment,significantly reduced
same,body weight gain trend,[4]; compared with the model group,no difference
same,collagen deposition (collagen area ratio),[5],no difference
same,"macrophage content (F4/80 immunofluorescence, muscle inflammation)",[5],no improvement
same,number of centrally nucleated fibers (HE staining),[5],significantly reduced
same,serum creatine kinase level,[5]; after treatment,no such effect
same,body weight growth trend,[5]; compared with the model group,no difference
C/C(=N\OCc1ccc(C2CCCCC2)c(C(F)(F)F)c1)c1ccc(CN2CC(C(=O)O)C2)c(C(F)(F)F)c1 [Compound 19],EC50,[1],8.63 ± 0.39 nM
same,EC50,[6],564 ± 184 nM
same,EC50,[2],121 ± 30.4 nM
"C[C@@H]1C[C@H]2[C@@H]3CCC4=CC(=O)C=C[C@]4(C)C3=CC[C@]2(C)[C@@]1(O)C(=O)CO [Vamorolone, reference compound]",collagen deposition (collagen area ratio),[7]; [9],significantly reduced collagen deposition
same,"macrophage levels (F4/80 macrophage marker, muscle inflammation)",[7]; [9],significantly reduced macrophage levels
same,number of centrally nucleated fibers (HE staining),[7]; [9],significantly reduced
same,serum creatine kinase level,[7]; [9],significantly reduced the creatine kinase level
same,rotarod time,[7]; [9],increased
same,grip strength,[7]; [9],increased significantly; also recorded: marked increase; also recorded: significantly elevated
"CCCCCCCCCCCCC/C=C/[C@@H](O)[C@@H](N)COP(=O)(O)O [Compound S1P, sphingosine 1-phosphate, reference compound]",S1PR4 internalization (expression of S1PR4 receptor on the cell surface),[3],can induce S1PR4 internalization
"C/C(=N\OCc1ccc(C2CCCCC2)c(C(F)(F)F)c1)c1ccc(CNCCC(=O)O)cc1 [Compound 10, (E)-3-((4-((1-((4-cyclohexyl-3-(trifluoromethyl)benzyl)oxy)imino)ethyl)benzyl)amino)propanoic acid]",EC50,[6],262 ± 37.3 nM
same,EC50,[2],160 ± 4.9 nM
"CCc1cc(/C(C)=N/OCc2ccc(-c3ccccc3)c(C)c2)ccc1CNCCCC(=O)O [Compound 32, (E)-4-((2-ethyl-4-(1-((2-methyl-[1,1'-biphenyl]-4-yl)methoxy)imino)ethyl)benzyl)aminobutyric acid]",EC50,[2],110 ± 6.85 nM
C/C(=N\OCc1ccc(C2CCCCC2)c(C(F)(F)F)c1)c1ccc(CN2CC(C(=O)O)C2)c(C)c1 [Compound 18],EC50,[1],2.95 ± 0.69 nM
same,EC50,[6],266 ± 62.8 nM
same,EC50,[2],63.1 ± 21.8 nM
"CCc1cc(/C(C)=N/OCc2ccc(-c3cnc(F)cn3)c(C)c2)ccc1CN1CC[C@H](C(=O)O)C1 [Compound 67, (S, E)-1-(2-ethyl-4-(1-(((4-(5-fluoropyrazin-2-yl)-3-methylbenzyl)oxy)imino)ethyl)benzyl)pyrrolidine-3-carboxylic acid]",S1PR4 internalization (expression of S1PR4 receptor on the cell surface),[3],sustained internalization capacity
same,atrophy of the tibialis anterior muscle,[8]; high dose (Compound 30: 10mg/kg intraperitoneal once daily),significantly inhibited
same,atrophy of the tibialis anterior muscle,[8]; medium dose (Compound 30: 1mg/kg intraperitoneal once daily),significantly inhibited
same,collagen deposition (collagen area ratio),[7]; [10],significantly reduced collagen deposition
same,"macrophage levels (F4/80 macrophage marker, muscle inflammation)",[7]; [10],significantly reduced macrophage levels
same,number of centrally nucleated fibers (HE staining),[7]; [10],significantly reduced
same,serum creatine kinase level,[7]; [10],significantly reduced the creatine kinase level
same,rotarod time,[7]; [10],increased
same,grip strength,[7]; [10],marked increase; also recorded: significantly elevated
same,grip strength,"[7]; 3 mg/kg intragastric once daily, listed as compound 67",increased significantly
CCc1cc(/C(C)=N/OCc2ccc(C3CCCC3)c(C(F)(F)F)c2)ccc1CN1CC(C(=O)O)C1 [Compound 17],EC50,[1],2.21 ± 0.58 nM
same,EC50,[2],95.6 ± 42.1 nM
